Data reported in patent publication US20040234981A1, “Method of determining dna base sequence” (priority 2001, published 2004).
Several values for one entry are separate records, joined by “and”; a condition that tells them apart may be missing. Equal values may be shown once.

Key:
Type in all cases: biochemical
[1] = tested on: 3′-dATP; assay: Test (1): 3′-dATP added during in vitro transcription, amount of RNA synthesized (SYBER Green II gel image); conditions: 3′-dATP concentration 0.024 mM, wild form of T7 RNA polymerase taken as 1, inverse of RNA synthesis level
Experimental: (§1) The ability to incorporate 3′-dATP of the Δ type enzyme of purified T7 RNA polymerase was compared to that of the wild type and F644Y mutation.
In this method, 3′-dATP was added during an in vitro transcription reaction and the synthesis level was determined by comparison with synthesis impairment. This will be described in greater detail. The template employed was pBluescriptII (Stratagene) pretreated with the restriction enzyme ScaI (made by Nippon Gene). The reaction conditions were: 40 mM Tris-HCl, pH 8.0, 25 mM NaCl, 8 mM MgCl2, 2 mM spermidine-(HCl)3, and 5 mM DTT. The concentration of nucleotides ATP, CTP, GTP, and UTP was 0.5 mM. Of these, ATP was replaced with 3′-dATP (Sigma) in ranges of 0.006 mM, 0.008 mM, 0.012 mM, and 0.024 mM. The above purified enzymes were added to 20 μL of this solution and the reaction was conducted for 30 to 60 min at 37° C. At the conclusion of the reaction, 4 μL of 5× gel loading buffer was added (15% Ficoll, 0.1% BPB, 0.1% XC, 0.5% SDS, and 0.1 M EDTA). The entire solution was then subjected to electrophoresis in a 1% modified agarose gel containing formaldehyde. At the conclusion of electrophoresis, 10,000-fold dilution was conducted with SYBER Green II (made by Molecular Probe Co.) and dying was conducted for 20 to 40 min according to a protocol of addition to the product. A Fluoro S Multiimager (BiORad Co.) was then employed to irradiate ultraviolet radiation and pick up the fluorescent image. Multianalyst, an attached image analyzing software package, was used to determine the amount of RNA that had been synthesized from the image picked up. The various values of the results were compared. An increase in ability to incorporate 3′-dATP should result in a drop in the synthesis level. Accordingly, a comparison was made with a control, and the inverse thereof was employed as indicator of how readily 3′-dATP was incorporated.

[2] = tested on: 3′-dATP; assay: Test (2): 3′-dATP added during in vitro transcription with Biotin-labeled CTP, chemoluminescent signal detection; conditions: 3′-dATP concentration 0.00125 mM, wild form taken as 1, average of three runs
Experimental: as §1
In this method, 3′-dATP was added during an in vitro transcription reaction and the synthesis level was determined by comparison with synthesis impairment. This will be described in greater detail. The template employed was pBluescriptII (Stratagene) pretreated with the restriction enzyme ScaI (made by Nippon Gene). The reaction conditions were: 40 mM Tris-HCl, pH 8.0, 25 mM NaCl, 8 mM MgCl2, 2 mM spermidine-(HCl)3, and 5 mM DTT. The concentration of ribonucleotides rATP, rCTP, rGTP, and rUTP was 0.5 mM. A 0.1 mM quantity of Biotin-labeled CTP was added and 3′-dATP was added in ranges of 0.00125 mM, 0.0025 mM, and 0.005 mM. A 25 U quantity of enzymes purified as set forth above were added to 10 μL of this solution and the reaction was conducted for 60 min at 37° C. At the conclusion of the reaction, 1 μL of 10× gel loading buffer (1 mM EDTA, 1% SDS, 50% glycerol, and 0.05% BPB) was added. The entire solution was then subjected to electrophoresis in a 1% modified formamide gel. At the conclusion of electrophoresis, northern hybridization was conducted, the synthesized product was transcribed onto a nylon membrane, and signal detection was conducted based on a chemoluminescent substrate according to a protocol of anti-SA-AP antibody (made by Oriental Yeast Co., diluted 20,000-fold) and CDP-Star™ (made by Roche Co.). A Fluoro S Multiimager (BioRad Co.) and Multianalyst, an attached image analyzing software package, were then employed to determine the level of the signal detected.

[3] = tested on: fluorescent-labeled 3′-deoxynucleotide; assay: Ability to incorporate fluorescent-labeled 3′-deoxynucleotide, fluorescent signal intensity on ABI 377 XL Sequencer
Experimental: A comparison was conducted of the ability to incorporate florescent-labeled 3′-deoxynucleotide of Δ-type enzyme of purified T7 RNA polymerase.
This method was conducted in accordance with the method of Sasaki et al. (Sasaki, N., et al. Gene, 222(1): 17-24 (1998)). In greater detail, pBluescriptII DNA was employed as template. A solution obtained by mixing Bodipy(R6G)-3′dATP, Bodipy(FL)-3′dGTP, Bodipy(581/591)-3′dCTP, Bodipy(564/570)-3′dUTP, ATP, GTP, CTP, and UTP in prescribed proportions was employed to conduct reactions differing only with regard to the T7 RNA polymerase employed. The enzymes employed were 100 units of T7 RNA polymerase (wild type) and T7 RNA polymerase F644Y; and 50 units of T7 RNA polymerase F644Y/Δ1. The reaction product was subjected to electrophoresis with an ABI 377 XL Sequencer. The average value of the fluorescent signal intensity was compared for each nucleotide.
Column (2) is a conversion of the value of (1) per unit of enzyme. Numbers shown in parentheses denote values relative to a value of “1” for the signal intensity of wild enzyme. […] Since the ABI 377 XL Sequencer is not a device for quantitative analysis, and operations is conducted on an extremely small amount of samples, large errors are to be expected.

[4] = relative to a value of 1 for the signal intensity of wild enzyme

Row | Molecule | Relative ability to incorporate 3′-dATP [1] | Relative ability to incorporate 3′-dATP [2] | (1) Average signal intensity U ([3]; Bodipy(564/570)-3′dUTP, 100 units of enzyme (50 units for F644Y/Δ1)) | (1) Average signal intensity C ([3]; Bodipy(581/591)-3′dCTP, 100 units of enzyme (50 units for F644Y/Δ1)) | (1) Average signal intensity G ([3]; Bodipy(FL)-3′dGTP, 100 units of enzyme (50 units for F644Y/Δ1)) | (1) Average signal intensity A ([3]; Bodipy(R6G)-3′dATP, 100 units of enzyme (50 units for F644Y/Δ1)) | (2) Signal intensity per unit of enzyme G ([3]; conversion of (1) per unit of enzyme) | Signal intensity per unit of enzyme A, value in parentheses relative to wild enzyme [3, 4] | Signal intensity per unit of enzyme C, value in parentheses relative to wild enzyme [3, 4] | Signal intensity per unit of enzyme G, value in parentheses relative to wild enzyme [3, 4] | Signal intensity per unit of enzyme U, value in parentheses relative to wild enzyme [3, 4] | Relative ability to incorporate 3′-dATP ([2]; listed as F644Y/Δ3) | Relative ability to incorporate 3′-dATP ([2]; listed as T7 RNA polymerase F644Y/Δ 3)
1 | T7 RNA polymerase (wild type): wild RNA polymerase derived from T7 phage | 1.00 | 1.00 | 120 | 146 | 220 | 67 | 2.2 | (1.0) | (1.0) | (1.0) | (1.0) | – | –
2 | T7 RNA polymerase F644Y/Δ2: T7 RNA polymerase F644Y deficient in amino acids 172 and 173 and 178 through 180; plasmid pT7RF644Y/Δ2 (protein, UniProt P00573 1-883, looked up, variant F644Y del172-173 del178-180) T7 RNA polymerase: MNTINIAKNDFSDIELAAIPFNTLADHYGERLAREQLALEHESYEMGEARFRKMFERQLKAGEVADNAAAKPLITTLLPKMIARINDWFEEVKAKRGKRPTAFQFLQEIKPEAVAYITIKTTLACLTSADNTTVQAVASAIGRAIEDEARFGRIRDLEAKHFKKNVEEQLNVGHVAFMQVVEADMLSKGLLGGEAWSSWHKEDSIHVGVRCIEMLIESTGMVSLHRQNAGVVGQDSETIELAPEYAEAIATRAGALAGISPMFQPCVVPPKPWTGITGGGYWANGRRPLALVRTHSKKALMRYEDVYMPEVYKAINIAQNTAWKINKKVLAVANVITKWKHCPVEDIPAIEREELPMKPEDIDMNPEALTAWKRAAAAVYRKDKARKSRRISLEFMLEQANKFANHKAIWFPYNMDWRGRVYAVSMFNPQGNDMTKGLLTLAKGKPIGKEGYYWLKIHGANCAGVDKVPFPERIKFIEENHENIMACAKSPLENTWWAEQDSPFCFLAFCFEYAGVQHHGLSYNCSLPLAFDGSCSGIQHFSAMLRDEVGGRAVNLLPSETVQDIYGIVAKKVNEILQADAINGTDNEVVTVTDENTGEISEKVKLGTKALAGQWLAYGVTRSVTKRSVMTLAYGSKEYGFRQQVLEDTIQPAIDSGKGLMFTQPNQAAGYMAKLIWESVSVTVVAAVEAMNWLKSAAKLLAAEVKDKKTGEILRKRCAVHWVTPDGFPVWQEYKKPIQTRLNLMFLGQFRLQPTINTNKDSEIDAHKQESGIAPNFVHSQDGSHLRKTVVWAHEKYGIESFALIHDSFGTIPADAANLFKAVRETMVDTYESCDVLADFYDQFADQLHESQLDKMPALPAKGNLNLRDILESDFAFA | almost the same results | – | – | – | – | – | – | – | – | – | – | – | –
3 | T7 RNA polymerase F644Y/Δ3: T7 RNA polymerase F644Y with Δ3 deficiency (DEL 178-180) (protein, UniProt P00573 1-883, looked up, variant F644Y del178-180) T7 RNA polymerase: MNTINIAKNDFSDIELAAIPFNTLADHYGERLAREQLALEHESYEMGEARFRKMFERQLKAGEVADNAAAKPLITTLLPKMIARINDWFEEVKAKRGKRPTAFQFLQEIKPEAVAYITIKTTLACLTSADNTTVQAVASAIGRAIEDEARFGRIRDLEAKHFKKNVEEQLNKRVGHVAFMQVVEADMLSKGLLGGEAWSSWHKEDSIHVGVRCIEMLIESTGMVSLHRQNAGVVGQDSETIELAPEYAEAIATRAGALAGISPMFQPCVVPPKPWTGITGGGYWANGRRPLALVRTHSKKALMRYEDVYMPEVYKAINIAQNTAWKINKKVLAVANVITKWKHCPVEDIPAIEREELPMKPEDIDMNPEALTAWKRAAAAVYRKDKARKSRRISLEFMLEQANKFANHKAIWFPYNMDWRGRVYAVSMFNPQGNDMTKGLLTLAKGKPIGKEGYYWLKIHGANCAGVDKVPFPERIKFIEENHENIMACAKSPLENTWWAEQDSPFCFLAFCFEYAGVQHHGLSYNCSLPLAFDGSCSGIQHFSAMLRDEVGGRAVNLLPSETVQDIYGIVAKKVNEILQADAINGTDNEVVTVTDENTGEISEKVKLGTKALAGQWLAYGVTRSVTKRSVMTLAYGSKEYGFRQQVLEDTIQPAIDSGKGLMFTQPNQAAGYMAKLIWESVSVTVVAAVEAMNWLKSAAKLLAAEVKDKKTGEILRKRCAVHWVTPDGFPVWQEYKKPIQTRLNLMFLGQFRLQPTINTNKDSEIDAHKQESGIAPNFVHSQDGSHLRKTVVWAHEKYGIESFALIHDSFGTIPADAANLFKAVRETMVDTYESCDVLADFYDQFADQLHESQLDKMPALPAKGNLNLRDILESDFAFA | – | – | – | – | – | – | – | – | – | – | – | 2.00±0.3 and 2.00 | 2.00 ± 0.3
